From publication PMC3466204 (PLoS ONE, 2012)
Ends that are not written are not given here.

System: Lactococcus lactis HP
Assay: Agarose-based assay of cell-free supernatants of S29X producing strains
Conditions: for Zone Diameter (mm): agarose (1%) GM17 assay, 10 µl cell-free supernatant of overnight producing culture in 4.6 mm wells, L. lactis HP, 30°C; for % difference (zone relative to wild type): agarose assay of supernatants against L. lactis HP, wild type serine = 100
Description: Agarose-based deferred antagonism assays were carried out as follows: GM17/LB (0.03%) underlay was prepared with 10 mM sodium phosphate buffer (SPB) at pH 7.4 to which was added agarose (1% w/v agarose), autoclaved and cooled to 50°C. Bacteria grown to mid-logarithmic phase were harvested by centrifugation and washed with 10 mM SPB at pH 7.4. Bacteria were then added to 15 mls cooled underlay medium to reach a concentration of 2×10^7 colony-forming units (CFU)/mL. The inoculated medium was rapidly transferred into sterile Petri plates, allowed to solidify and dried. Wells (4.6 mm in diameter) were then made in the seeded plates. 10 µl volumes of cell-free supernatant from overnight nisin derivative producing cultures or resuspended purified peptides were then added to the wells and the plates incubated at 30°C (L. lactis) or 37°C (Gram positive strains) or RT (Gram negative strains) for 3 hours. Polymyxin B (Sigma Aldrich) was used at a concentration of 20 µg/ml. The plates were then overlaid with 15 mls of autoclaved double strength GM17 (L. lactis) or LB (Gram negatives) agarose (1% w/v agarose) overlay medium precooled to 50°C. The plates were then incubated overnight at the relevant temperature.

S29C: nisin A S29 saturation derivative, cysteine at position 29 (ITSISLCTPGCKTGALMGCNMKTATCHCCIHVSK; not fully specified; cysteine pairing not given here; UniProt P13068 24-57, looked up, variant S29C)
Zone Diameter (mm): 10.5±1.0 mm | % difference (zone relative to wild type): 69%

S29F: nisin A S29 saturation derivative, phenylalanine at position 29 (ITSISLCTPGCKTGALMGCNMKTATCHCFIHVSK; not fully specified (bridges); also: lantibiotic nisin A (lanthionine rings, dehydrated residues not placed); UniProt P13068 24-57, looked up, variant S29F)
Zone Diameter (mm): 11.0±1.0 mm | % difference (zone relative to wild type): 72%

S29H: nisin A S29 saturation derivative, histidine at position 29 (ITSISLCTPGCKTGALMGCNMKTATCHCHIHVSK; not fully specified (bridges); also: lantibiotic nisin A (lanthionine rings, dehydrated residues not placed); UniProt P13068 24-57, looked up, variant S29H)
Zone Diameter (mm): 10.9±0.3 mm | % difference (zone relative to wild type): 72%

S29I: nisin A S29 saturation derivative, isoleucine at position 29 (ITSISLCTPGCKTGALMGCNMKTATCHCIIHVSK; not fully specified; cysteine pairing not given here; UniProt P13068 24-57, looked up, variant S29I)
Zone Diameter (mm): 9.9±1.0 mm | % difference (zone relative to wild type): 65%

S29K: nisin A S29 saturation derivative, lysine at position 29 (ITSISLCTPGCKTGALMGCNMKTATCHCKIHVSK; not fully specified (bridges); also: lantibiotic nisin A (lanthionine rings, dehydrated residues not placed); UniProt P13068 24-57, looked up, variant S29K)
Zone Diameter (mm): 9.9±1.0 mm | % difference (zone relative to wild type): 64%

S29L: nisin A S29 saturation derivative, leucine at position 29 (ITSISLCTPGCKTGALMGCNMKTATCHCLIHVSK; not fully specified; cysteine pairing not given here; UniProt P13068 24-57, looked up, variant S29L)
Zone Diameter (mm): 12.7±0.7 mm | % difference (zone relative to wild type): 84%

S29N: nisin A S29 saturation derivative, asparagine at position 29 (ITSISLCTPGCKTGALMGCNMKTATCHCNIHVSK; not fully specified; cysteine pairing not given here; UniProt P13068 24-57, looked up, variant S29N)
Zone Diameter (mm): 12.6±1.0 mm | % difference (zone relative to wild type): 83%

S29P: nisin A S29 saturation derivative, proline at position 29 (ITSISLCTPGCKTGALMGCNMKTATCHCPIHVSK; not fully specified (bridges); also: lantibiotic nisin A (lanthionine rings, dehydrated residues not placed); UniProt P13068 24-57, looked up, variant S29P)
Zone Diameter (mm): 13.7±1.0 mm | % difference (zone relative to wild type): 89%

S29Q: nisin A S29 derivative, glutamine at position 29, made by site-directed mutagenesis (ITSISLCTPGCKTGALMGCNMKTATCHCQIHVSK; not fully specified; cysteine pairing not given here; UniProt P13068 24-57, looked up, variant S29Q)
Zone Diameter (mm): 15.3±0.1 mm | % difference (zone relative to wild type): 100%

S29R: nisin A S29 saturation derivative, arginine at position 29 (ITSISLCTPGCKTGALMGCNMKTATCHCRIHVSK; not fully specified (bridges); also: lantibiotic nisin A (lanthionine rings, dehydrated residues not placed); UniProt P13068 24-57, looked up, variant S29R)
Zone Diameter (mm): 11.0±0.6 mm | % difference (zone relative to wild type): 72%

S29T: nisin A S29 saturation derivative, threonine at position 29 (ITSISLCTPGCKTGALMGCNMKTATCHCTIHVSK; not fully specified (bridges); also: lantibiotic nisin A (lanthionine rings, dehydrated residues not placed); UniProt P13068 24-57, looked up, variant S29T)
Zone Diameter (mm): 12.1±0.9 mm | % difference (zone relative to wild type): 79%

S29V: nisin A S29 saturation derivative, valine at position 29 (ITSISLCTPGCKTGALMGCNMKTATCHCVIHVSK; not fully specified (bridges); also: lantibiotic nisin A (lanthionine rings, dehydrated residues not placed); UniProt P13068 24-57, looked up, variant S29V)
Zone Diameter (mm): 11.6±0.4 mm | % difference (zone relative to wild type): 76%

S29W: nisin A S29 saturation derivative, tryptophan at position 29 (ITSISLCTPGCKTGALMGCNMKTATCHCWIHVSK; not fully specified; cysteine pairing not given here; UniProt P13068 24-57, looked up, variant S29W)
Zone Diameter (mm): 12.1±1.2 mm | % difference (zone relative to wild type): 79%

S29Y: nisin A S29 saturation derivative, tyrosine at position 29 (ITSISLCTPGCKTGALMGCNMKTATCHCYIHVSK; not fully specified (bridges); also: lantibiotic nisin A (lanthionine rings, dehydrated residues not placed); UniProt P13068 24-57, looked up, variant S29Y)
Zone Diameter (mm): 10.6±0.6 mm | % difference (zone relative to wild type): 70%
